Measurements taken from patent US12478067B2, “Heterocyclic compound and harmful arthropod pest control composition containing same” (SUMITOMO CHEMICAL COMPANY, LIMITED, priority 2019, dated 2025).

Tests used:
Type in all cases: in vivo
[1] = system: common house mosquito (Culex pipiens pallens); assay: whole plant or invertebrate; settings: 24 h, Test Example 8, last instar larvae, after 1 day, 25° C., read-out: mortality of insects
Excerpt: Mortality (%)=(Number of dead insects/Number of tested insects)×100

[2] = system: Western corn rootworms (Diabrotica virgifera virgifera); assay: whole plant or invertebrate; settings: 120 h, Test Example 9-1, corn seedling immersed 30 seconds, second instar larvae, after 5 days, 25° C., read-out: mortality of insects
Experimental: Each 1 mg of the test compounds is dissolved into 50 μL of a mixed solution of polyoxyethylene sorbitan mono-cocoate and acetone (polyoxyethylene sorbitan mono-cocoate:acetone=5:95 (v/v ratio)).
A young entire seedling of Corns (Zea mays) is immersed into the diluted solution for 30 seconds. […] Mortality (%)=(Number of dead insects/10}×100

[3] = system: housefly (Musca domestica); assay: Test method 6: filter paper with sucrose bait, housefly female adults; settings: Test Example 6, 0.7 ml on filter paper with sucrose bait, after 24 hours, 25° C., read-out: mortality of insects
Experimental: A filter paper having a diameter of 5.5 cm in diameter is spread on the bottom of the cup, and then 0.7 ml of the diluted solutions are added dropwise to the filter paper and 30 mg of sucrose is uniformly placed on the filter paper as a bait. Ten (10) housefly (Musca domestica) female adults are released into the cup, and the cup is then covered with the lid. […] Mortality (%)=(Number of dead insects/Number of tested insects)×100

[4] = system: housefly (Musca domestica); assay: Test method 7: coated container, housefly female adults; settings: Test Example 7-1, container coated at 40 mg/m^2 (800 ppm acetone solution), elapsed time 1 hour, 25° C., read-out: mortality of insects
Experimental: An acetone solution which is adjusted to 800 ppm of the test compound is poured into a container having 20 mL contents, and the test compound is coated uniformly on inner face of the container so as to make 40 mg/m^2 thereof, and the container is then allowed to dry.
Into the container, five (5) housefly (Musca domestica) female adults are released into the container, and the container is then covered with the lid. […] Mortality (%)=(Number of dead insects/Number of tested insects)×100

Structure (SMILES) | mortality at 3.5 ppm [1] | mortality at 500 ppm [2] | mortality at 500 ppm [3] | mortality at 40 mg/m2 [4]
CCSc1c(-n2cnc3cc(C(F)(F)F)ccc3c2=O)nc2ccc(Br)cn12 [Present compound 2-1] | ≥ 91% | ≥ 80% | – | –
CCSc1c(-n2cnc3cc(C(F)(F)F)ccc3c2=O)nc2cc(C(F)(F)F)ccn12 [Present compound 2-15] | ≥ 91% | – | ≥ 70% | –
CCSc1c(-n2nnc3ccc(C(F)(F)F)cc3c2=O)nc2ccc(Br)cn12 [Present compound 4-2] | ≥ 91% | ≥ 80% | – | ≥ 80%
